Reference: patent publication US20230295130A1, “COMPOUND USEFUL AS CDK7 KINASE INHIBITOR AND USE THEREOF” (TYK MEDICINES, INC., priority 2020, published 2023)

How the values were obtained:
Experiment in all cases: Enzyme activity test, mobility shift assay (Table 1)
Assay type in all cases: biochemical
[1] = biological target: CDK7/Cyclin H/MAT1 kinase (Homo sapiens (Human), UniProt P50613); conditions: 2 mM ATP; pre-incubated 0 and 60 minutes
Experimental: IC50 values of the compounds for CDK7 kinase were detected in Wuxi Biortus Biosciences Co. Ltd.
(§1) The compound powder was dissolved in 100% DMSO to prepare a 10 mM storage solution. The storage solution was further diluted to 0.5 mM as the initial concentration, and continuously diluted 3 times to obtain 10 compound solutions with different concentrations. The compound and enzyme were pre-incubated for 0 minutes and 60 minutes, respectively, using duplicate detection.
(§2) was used as a positive control, and Mobility shift assay method was used to detect CDK kinase (such as CDK7, CDK9, CDK12 and CDK2) activity of the compounds.

[2] = biological target: CDK2/Cyclin El (Homo sapiens (Human), UniProt P24941); conditions: 2 mM ATP; read-out: CDK2 kinase IC50
Experimental: as §1, §2

[3] = biological target: CDK9/Cyclin Tl (Homo sapiens (Human), UniProt P50750); conditions: 2 mM ATP; read-out: CDK9 kinase IC50
Experimental: as §1, §2

[4] = biological target: CDK12 (aa686-1082)/Cyclin K (Homo sapiens (Human), UniProt Q9NYV4); conditions: 2 mM ATP; read-out: CDK12 kinase IC50
Experimental: as §1, with “detection. Compound Staurosporine having a structural formula of” for “detection.”
as §2

Chain of CDK9/Cyclin Tl (P50750 whole entry): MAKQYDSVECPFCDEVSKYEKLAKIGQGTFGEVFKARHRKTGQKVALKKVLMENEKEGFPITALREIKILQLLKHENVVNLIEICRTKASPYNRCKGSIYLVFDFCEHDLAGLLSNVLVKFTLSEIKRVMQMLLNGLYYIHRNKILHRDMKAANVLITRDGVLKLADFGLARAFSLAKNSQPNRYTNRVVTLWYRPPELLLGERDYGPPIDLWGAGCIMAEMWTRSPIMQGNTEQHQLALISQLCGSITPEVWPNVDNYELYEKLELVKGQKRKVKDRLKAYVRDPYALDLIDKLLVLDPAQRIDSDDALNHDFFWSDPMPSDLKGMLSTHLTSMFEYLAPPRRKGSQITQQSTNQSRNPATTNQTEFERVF
Chain of CDK9/Cyclin Tl (O60563 whole entry partner): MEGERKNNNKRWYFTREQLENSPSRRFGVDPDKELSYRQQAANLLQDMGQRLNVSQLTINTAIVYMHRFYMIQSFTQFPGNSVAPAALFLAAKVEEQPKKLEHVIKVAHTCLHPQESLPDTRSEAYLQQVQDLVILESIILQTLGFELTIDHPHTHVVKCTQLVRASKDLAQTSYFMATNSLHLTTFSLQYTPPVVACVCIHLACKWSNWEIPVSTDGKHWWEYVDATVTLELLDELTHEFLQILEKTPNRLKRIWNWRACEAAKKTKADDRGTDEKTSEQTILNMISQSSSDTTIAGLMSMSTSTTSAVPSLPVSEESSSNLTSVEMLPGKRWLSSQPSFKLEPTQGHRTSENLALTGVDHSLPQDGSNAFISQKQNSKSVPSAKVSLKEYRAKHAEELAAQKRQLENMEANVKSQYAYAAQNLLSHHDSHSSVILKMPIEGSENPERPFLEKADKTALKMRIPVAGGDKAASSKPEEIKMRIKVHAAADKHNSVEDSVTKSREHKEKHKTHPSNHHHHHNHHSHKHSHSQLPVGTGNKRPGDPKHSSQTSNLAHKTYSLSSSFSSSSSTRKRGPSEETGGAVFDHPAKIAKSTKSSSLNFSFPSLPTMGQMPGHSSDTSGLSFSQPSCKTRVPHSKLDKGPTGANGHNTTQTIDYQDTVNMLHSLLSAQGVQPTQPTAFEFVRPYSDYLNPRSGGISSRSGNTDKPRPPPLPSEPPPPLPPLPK
Chain of CDK7/Cyclin H/MAT1 kinase (P50613 whole entry): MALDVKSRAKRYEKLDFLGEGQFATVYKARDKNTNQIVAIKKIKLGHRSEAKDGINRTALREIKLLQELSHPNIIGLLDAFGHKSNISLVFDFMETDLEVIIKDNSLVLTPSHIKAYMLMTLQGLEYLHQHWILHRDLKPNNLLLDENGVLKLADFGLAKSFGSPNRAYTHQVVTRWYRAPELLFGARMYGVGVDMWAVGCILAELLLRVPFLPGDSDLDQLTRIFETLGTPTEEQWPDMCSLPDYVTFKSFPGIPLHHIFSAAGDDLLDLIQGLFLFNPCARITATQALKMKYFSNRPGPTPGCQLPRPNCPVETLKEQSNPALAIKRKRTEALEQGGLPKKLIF
Chain of CDK7/Cyclin H/MAT1 kinase (P51946 whole entry partner): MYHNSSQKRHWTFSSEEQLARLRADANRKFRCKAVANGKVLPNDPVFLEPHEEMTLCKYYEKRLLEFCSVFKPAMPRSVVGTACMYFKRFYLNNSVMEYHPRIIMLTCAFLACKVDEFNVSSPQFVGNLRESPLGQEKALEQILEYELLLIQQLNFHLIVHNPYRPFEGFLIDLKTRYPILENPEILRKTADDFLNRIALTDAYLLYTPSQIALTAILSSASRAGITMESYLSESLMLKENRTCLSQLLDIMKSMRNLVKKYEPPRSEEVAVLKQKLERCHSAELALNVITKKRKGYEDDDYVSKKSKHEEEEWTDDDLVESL
Chain of CDK7/Cyclin H/MAT1 kinase (P51948 whole entry partner): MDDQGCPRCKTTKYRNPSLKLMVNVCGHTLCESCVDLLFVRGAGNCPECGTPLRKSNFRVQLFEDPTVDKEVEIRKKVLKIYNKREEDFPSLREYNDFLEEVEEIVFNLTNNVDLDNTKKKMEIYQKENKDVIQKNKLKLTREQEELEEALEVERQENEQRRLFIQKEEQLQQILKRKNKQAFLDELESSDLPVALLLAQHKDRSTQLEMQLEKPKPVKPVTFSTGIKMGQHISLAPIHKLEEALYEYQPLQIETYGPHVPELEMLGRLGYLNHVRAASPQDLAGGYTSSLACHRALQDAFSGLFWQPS
Chain of CDK12 (aa686-1082)/Cyclin K (Q9NYV4 686-1082): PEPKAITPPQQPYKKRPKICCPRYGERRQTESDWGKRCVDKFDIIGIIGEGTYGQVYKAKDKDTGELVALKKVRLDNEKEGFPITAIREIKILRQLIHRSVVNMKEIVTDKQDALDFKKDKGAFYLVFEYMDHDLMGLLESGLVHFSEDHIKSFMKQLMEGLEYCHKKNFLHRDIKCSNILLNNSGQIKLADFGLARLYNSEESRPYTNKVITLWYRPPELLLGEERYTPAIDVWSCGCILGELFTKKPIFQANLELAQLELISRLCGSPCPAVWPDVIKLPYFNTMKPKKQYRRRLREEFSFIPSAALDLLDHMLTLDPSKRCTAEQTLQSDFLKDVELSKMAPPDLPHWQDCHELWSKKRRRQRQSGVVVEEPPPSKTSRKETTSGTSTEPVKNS
Chain of CDK12 (aa686-1082)/Cyclin K (O75909 whole entry partner, the tested form may be a part): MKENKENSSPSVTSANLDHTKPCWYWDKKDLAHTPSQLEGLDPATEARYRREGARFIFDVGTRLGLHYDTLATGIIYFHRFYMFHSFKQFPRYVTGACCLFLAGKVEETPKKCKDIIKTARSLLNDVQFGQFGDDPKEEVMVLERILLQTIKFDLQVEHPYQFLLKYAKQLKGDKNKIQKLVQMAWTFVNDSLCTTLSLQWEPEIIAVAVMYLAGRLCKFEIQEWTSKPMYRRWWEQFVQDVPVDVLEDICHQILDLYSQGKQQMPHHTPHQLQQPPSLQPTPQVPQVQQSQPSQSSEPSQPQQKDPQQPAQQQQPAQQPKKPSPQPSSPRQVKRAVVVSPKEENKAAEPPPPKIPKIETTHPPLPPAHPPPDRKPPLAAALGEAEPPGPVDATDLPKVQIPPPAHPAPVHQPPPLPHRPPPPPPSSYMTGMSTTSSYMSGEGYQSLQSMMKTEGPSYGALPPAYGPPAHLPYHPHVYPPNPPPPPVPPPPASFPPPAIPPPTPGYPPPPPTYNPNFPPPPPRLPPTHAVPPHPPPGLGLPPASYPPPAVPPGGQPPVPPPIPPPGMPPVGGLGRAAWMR

IC50 [1] [µM]	IC50 [2] [µM]	IC50 [3] [µM]	IC50 [4] [µM]	SMILES
< 0.05	> 0.5	> 0.5	> 0.5	COC(=O)Nc1ccc2c(-c3nc(N[C@H]4CCCNC4)ncc3C(F)(F)F)c[nH]c2c1C(F)F [Example T-155]
< 0.05	> 0.5	> 0.5	> 0.5	COC(=O)Nc1ccc2c(-c3nc(N[C@H]4CCCNC4)ncc3C(F)(F)F)c[nH]c2c1C(C)C [Example T-69]
< 0.05	> 0.5	> 0.5	> 0.5	O=C1OCCN1c1ccc2c(-c3nc(N[C@H]4CCCNC4)ncc3C(F)(F)F)c[nH]c2c1Br [Example T-12]
< 0.05	> 0.5	> 0.5	> 0.5	CCOc1c(NC(=O)OC)ccc2c(-c3nc(N[C@H]4CCCN(C)C4)ncc3C(F)(F)F)c[nH]c12 [Example T-161]
< 0.05	> 0.5	> 0.5	> 0.5	COC(=O)N(C)c1ccc2c(-c3nc(N[C@H]4CCCNC4)ncc3C(F)(F)F)c[nH]c2c1Br [Example T-102]
< 0.05	> 0.5	> 0.5	> 0.5	O=C1CCCN1c1ccc2c(-c3nc(N[C@H]4CCCNC4)ncc3C(F)(F)F)c[nH]c2c1 [Example T-13]
< 0.05	> 0.5	> 0.5	> 0.5	O=C1CCCCN1c1ccc2c(-c3nc(N[C@H]4CCCNC4)ncc3C(F)(F)F)c[nH]c2c1Br [Example T-03]
< 0.05	> 0.5	> 0.5	> 0.5	COC(=O)Nc1ccc2c(-c3nc(N[C@H]4CCC(C)(C)NC4)ncc3Cl)c[nH]c2c1OCC(F)(F)F [Example T-85]
< 0.05	> 0.5	> 0.5	> 0.5	COC(=O)Nc1ccc2c(-c3nc(N[C@H]4CCCNC4)ncc3Br)c[nH]c2c1Br [Example T-75]
< 0.05	> 0.5	> 0.5	> 0.5	COC(=O)Nc1ccc2c(-c3nc(N[C@H]4CCC(C)(C)NC4)ncc3Cl)c[nH]c2c1CC(F)(F)F [Example T-86]
< 0.05	> 0.5	> 0.5	> 0.5	COC(=O)Nc1ccc2c(-c3nc(N[C@H]4CCCNC4)ncc3Cl)c[nH]c2c1C(F)(F)F [Example T-88]
< 0.05	> 0.5	> 0.5	> 0.5	COC(=O)Nc1ccc2c(-c3nc(N[C@H]4CCCNC4)ncc3C(F)(F)F)c[nH]c2c1 [Example T-16]
< 0.05	> 0.5	> 0.5	> 0.5	COC(=O)Nc1ccc2c(-c3nc(N[C@H]4CCCNC4)ncc3C(F)(F)F)c[nH]c2c1P(C)(C)=O [Example T-14]
< 0.05	> 0.5	> 0.5	> 0.5	CC(=O)Nc1ccc2c(-c3nc(N[C@H]4CCCNC4)ncc3C(F)(F)F)c[nH]c2c1 [Example T-10]
0.05 to 0.5	> 0.5	> 0.5	> 0.5	COC(=O)Nc1ccc2c(-c3nc(N[C@H]4CCC[C@H](N)C4)ncc3C(F)(F)F)c[nH]c2c1Br [Example T-20]
0.05 to 0.5	> 0.5	> 0.5	> 0.5	COC(=O)Nc1ccc2c(-c3nc(N[C@H]4CCC(C)NC4)ncc3C(F)(F)F)c[nH]c2c1C1CC1 (stereo partly drawn) [Example T-129]
< 0.05	> 0.5	> 0.5	> 0.5	COC(=O)Nc1ccc2c(-c3nc(N[C@H]4CCCN(C)C4)ncc3C(F)(F)F)c[nH]c2c1Cl [Example T-168]

IC50 [1] [µM]	IC50 [2] [µM]	IC50 [3] [µM]	IC50 [4] [µM]	SMILES
< 0.05	> 0.5	> 0.5	> 0.5	COC(=O)Nc1ccc2c(-c3nc(N[C@H]4CCCNC4)ncc3C(F)(F)F)c[nH]c2c1S(=O)(=O)C(C)C [Example T-63]
< 0.05	> 0.5	> 0.5	> 0.5	CC(=O)Nc1ccc2c(-c3nc(N[C@H]4CCCNC4)ncc3C(F)(F)F)c[nH]c2c1Br [Example T-09]
< 0.05	> 0.5	> 0.5	> 0.5	O=C(Nc1ccc2c(-c3nc(N[C@H]4CCCNC4)ncc3C(F)(F)F)c[nH]c2c1Br)C1CC1 [Example T-08]
< 0.05	> 0.5	> 0.5	> 0.5	COC(=O)N(C)c1ccc2c(-c3nc(N[C@H]4CCCNC4)ncc3C(F)(F)F)c[nH]c2c1OC(F)F [Example T-165]
< 0.05	> 0.5	> 0.5	> 0.5	O=C1CCN1c1ccc2c(-c3nc(N[C@H]4CCCNC4)ncc3C(F)(F)F)c[nH]c2c1Br [Example T-18]
0.05 to 0.5	> 0.5	> 0.5	> 0.5	COC(=O)Nc1ccc2c(-c3nc(O[C@H]4CCCNC4)ncc3C(F)(F)F)c[nH]c2c1Br [Example T-02]
< 0.05	> 0.5	> 0.5	> 0.5	COC(=O)Nc1ccc2c(-c3nc(N[C@H]4CCCNC4)ncc3C(F)(F)F)c[nH]c2c1-c1cnn(C)c1 [Example T-68]
< 0.05	> 0.5	> 0.5	> 0.5	CC(=O)Nc1ccc2c(-c3nc(N[C@H]4CCCNC4)ncc3C(F)(F)F)c[nH]c2c1P(C)(C)=O [Example T-15]
0.05 to 0.5	> 0.5	> 0.5	> 0.5	COC(=O)Nc1ccc2c(-c3nc(N[C@H]4CC[C@H](C)NC4)ncc3C(F)(F)F)c[nH]c2c1C1CC1 [Example T-131]
< 0.05	> 0.5	> 0.5	> 0.5	COC(=O)Nc1ccc2c(-c3nc(N[C@H]4CCC(C)(C)NC4)ncc3C(F)(F)F)c[nH]c2c1Cl [Example T-80]
< 0.05	> 0.5	> 0.5	> 0.5	COC(=O)Nc1ccc2c(-c3nc(N[C@H]4CCC(C)(C)NC4)ncc3C(F)(F)F)c[nH]c2c1C(C)(F)F [Example T-136]
0.05 to 0.5	> 0.5	> 0.5	> 0.5	COC(=O)Nc1ccc2c(-c3nc(N[C@H]4CC[C@@H](C)NC4)ncc3C(F)(F)F)c[nH]c2c1Cl [Example T-146]
< 0.05	> 0.5	> 0.5	> 0.5	COC(=O)Nc1ccc2c(-c3nc(NC4CC5(CNC5)C4)ncc3C(F)(F)F)c[nH]c2c1Br [Example T-19]
< 0.05	> 0.5	> 0.5	> 0.5	COC(=O)Nc1ccc2c(-c3nc(N[C@H]4CCCNC4)ncc3C(F)(F)F)c[nH]c2c1[S+]([O-])C(C)C (stereo partly drawn) [Example T-65]
0.05 to 0.5	> 0.5	> 0.5	> 0.5	COC(=O)Nc1ccc2c(-c3nc(NC4CC5CNCC5C4)ncc3C(F)(F)F)c[nH]c2c1Br (stereo not drawn) [Example T-28]
0.05 to 0.5	> 0.5	> 0.5	> 0.5	COC(=O)Nc1ccc2c(-c3nc(N[C@H]4CC[C@@H](C)NC4)ncc3C(F)(F)F)c[nH]c2c1C1CC1 [Example T-130]
